Results taken from patent US9295673B2, “Combination of mTOR inhibitors and P13-kinase inhibitors, and uses thereof” (Intellikine LLC, priority 2011, dated 2016).
pIC50: −log10 of the molar value. Like-named read-outs stand apart in the source and are kept apart here.

Tests used:
PC3 = PC3 proliferation (Alamar Blue); assay type: cell-based; details: Homo sapiens, PC-3; PC3 cells
Procedure: For instance, an in vitro cellular proliferation assay can be performed to measure the metabolic activity of live cells. The assay is performed in a 96 well microtiter plate using Alamar Blue reduction. […] A compound disclosed herein is diluted in Tumor Cell Media and added in a 10 ul volume. […] A volume of 10 uL of Alamar Blue reagent is added to each well and plates are incubated for 3 hours at 37 C and 5% CO2.

PI3K δ = PI3K δ (Homo sapiens, UniProt O00329); assay: PI 3-Kinase (human) HTRF assay, PI3K δ; details: read-out: PI3K δ IC50
PI3K γ = PI3K γ (Homo sapiens, UniProt P48736); assay: PI 3-Kinase (human) HTRF assay, PI3K γ; details: read-out: PI3K γ IC50
Procedure: (§1) An exemplary system is PI 3-Kinase (human) HTRF™ Assay from Upstate. […] Briefly, the assay is a time resolved FRET assay that indirectly measures PIP3 product formed by the activity of a PI3-K. The kinase reaction is performed in a microtitre plate (e.g., a 384 well microtitre plate). The total reaction volume is approximately 20 ul per well. In the first step, each well receives 2 ul of test compound in 20% dimethylsulphoxide resulting in a 2% DMSO final concentration. […] The plate is sealed and incubated for 15 minutes at room temperature. […] The plate is sealed and incubated for 1 hour at room temperature. The reaction is stopped by adding 5 ul of Stop Solution per well and then 5 ul of Detection Mix is added per well. The plate is sealed, incubated for 1 hour at room temperature, and then read on an appropriate plate reader. Data is analyzed and IC50s are generated using GraphPad Prism 5.

mTOR = target: T1, mTOR (Homo sapiens, UniProt P42345); assay: mTOR kinase inhibition assay (radiometric or LanthaScreen TR-FRET); assay type: biochemical; details: Table 4; read-out: mTORC IC50
T1 construct: purchased Invitrogen
Procedure: The compounds described herein can be tested against recombinant mTOR (Invitrogen) in an assay containing 50 mM HEPES, pH 7.5, 1 mM EGTA, 10 mM MgCl2, 2.5 mM, 0.01% Tween, 10 μM ATP (2.5 μCi of μ-32P-ATP), and 3 mg/mL BSA. Rat recombinant PHAS-1/4EBP1 (Calbiochem; 2 mg/mL) is used as a substrate. Reactions are terminated by spotting onto nitrocellulose, which is washed with 1M NaC1/1% phosphoric acid (approximately 6 times, 5-10 minutes each). Sheets are dried and the transferred radioactivity quantitated by phosphorimaging.
For instance, one can use Invitrogen's LanthaScreen™ Kinase assay to test the inhibitors of mTOR disclosed herein. This assay is a time resolved FRET platform that measures the phosphorylation of GFP labeled 4EBP1 by mTOR kinase. The kinase reaction is performed in a white 384 well microtitre plate. The total reaction volume is 20 ul per well and the reaction buffer composition is 50 mM HEPES pH7.5, 0.01% Polysorbate 20, 1 mM EGTA, 10 mM MnCl2, and 2 mM DTT. In the first step, each well receives 2 ul of test compound in 20% dimethylsulphoxide resulting in a 2% DMSO final concentration. […] The plate is sealed and incubated for 1 hour at room temperature. […] The plate is sealed, incubated for 1 hour at room temperature, and then read on a plate reader set up for LanthaScreen™ TR-FRET. Data is analyzed and IC50s are generated using GraphPad Prism 5.

PI3K α = PI3K α (Homo sapiens, UniProt P42336); assay: PI 3-Kinase (human) HTRF assay, PI3K α; details: read-out: PI3K α IC50; Table 4
Procedure: as §1

PI3K β = PI3K β (Homo sapiens, UniProt P42338); assay: PI 3-Kinase (human) HTRF assay, PI3K β; details: read-out: PI3K β IC50; Table 4
Procedure: as §1

[1] = test system: Akt, S6, 4EBP phosphorylation; assay: Western blot of PI3K pathway phosphorylation (Akt, S6, 4EBP); assay type: cell-based
NRDG1 phosphorylation = assay: Western blot of NRDG1 phosphorylation; assay type: cell-based; details: western blot (FIG. 5B)
[2] = test system: 786-O human kidney carcinoma tumors; assay: In vivo efficacy in 786-O xenograft model; parameters: species or system nude mice; details: oral, FIG. 6
[3] = test system: pAKT(S473), pAKT(T308) in PC3 cells; assay: Western blot of Akt phosphorylation (pAKT) in PC3 cells; assay type: cell-based; details: PC3 model, FIG. 7
Procedure: Cells comprising one or more mutations in PI3Kα, including but not limited to breast cancer cells (e.g., MDA-MB-361, T47D, SKOV-3), and cells comprising one or more mutations in PTEN including but not limited to prostate cancer cells (e.g., PC3), are typically grown in cell growth media such as DMEM supplemented with fetal bovine serum and/or antibiotics, and grown to confluency. Cells are then treated with various concentrations of test compound for about 2 hours and subsequently lysed in cell lysis buffer. Lysates are subjected to SDS-PAGE followed by Western blot analysis to detect downstream signaling markers, including but not limited to pAKT(S473), pAKT(T308), pS6, and p4E-BP1.

breast cancer model = assay: Preclinical breast cancer model (tumor weight / volume); assay type: in vivo; details: combined treatment with Compound A and Compound B (FIG. 2)
[4] = test system: mTORC1 and mTORC2 in 786-O cells; assay: Western blot of pNDRG1 in 786-O cells (mTOR pathways); assay type: cell-based, human; details: FIG. 5
Excerpt: Cells were subsequently lysed and lysates were subjected to SDS-PAGE followed by Western blot analysis to detect the downstream pathway marker, pNDRG1.

T1 sequence (P42345 1360-2549 limits assumed): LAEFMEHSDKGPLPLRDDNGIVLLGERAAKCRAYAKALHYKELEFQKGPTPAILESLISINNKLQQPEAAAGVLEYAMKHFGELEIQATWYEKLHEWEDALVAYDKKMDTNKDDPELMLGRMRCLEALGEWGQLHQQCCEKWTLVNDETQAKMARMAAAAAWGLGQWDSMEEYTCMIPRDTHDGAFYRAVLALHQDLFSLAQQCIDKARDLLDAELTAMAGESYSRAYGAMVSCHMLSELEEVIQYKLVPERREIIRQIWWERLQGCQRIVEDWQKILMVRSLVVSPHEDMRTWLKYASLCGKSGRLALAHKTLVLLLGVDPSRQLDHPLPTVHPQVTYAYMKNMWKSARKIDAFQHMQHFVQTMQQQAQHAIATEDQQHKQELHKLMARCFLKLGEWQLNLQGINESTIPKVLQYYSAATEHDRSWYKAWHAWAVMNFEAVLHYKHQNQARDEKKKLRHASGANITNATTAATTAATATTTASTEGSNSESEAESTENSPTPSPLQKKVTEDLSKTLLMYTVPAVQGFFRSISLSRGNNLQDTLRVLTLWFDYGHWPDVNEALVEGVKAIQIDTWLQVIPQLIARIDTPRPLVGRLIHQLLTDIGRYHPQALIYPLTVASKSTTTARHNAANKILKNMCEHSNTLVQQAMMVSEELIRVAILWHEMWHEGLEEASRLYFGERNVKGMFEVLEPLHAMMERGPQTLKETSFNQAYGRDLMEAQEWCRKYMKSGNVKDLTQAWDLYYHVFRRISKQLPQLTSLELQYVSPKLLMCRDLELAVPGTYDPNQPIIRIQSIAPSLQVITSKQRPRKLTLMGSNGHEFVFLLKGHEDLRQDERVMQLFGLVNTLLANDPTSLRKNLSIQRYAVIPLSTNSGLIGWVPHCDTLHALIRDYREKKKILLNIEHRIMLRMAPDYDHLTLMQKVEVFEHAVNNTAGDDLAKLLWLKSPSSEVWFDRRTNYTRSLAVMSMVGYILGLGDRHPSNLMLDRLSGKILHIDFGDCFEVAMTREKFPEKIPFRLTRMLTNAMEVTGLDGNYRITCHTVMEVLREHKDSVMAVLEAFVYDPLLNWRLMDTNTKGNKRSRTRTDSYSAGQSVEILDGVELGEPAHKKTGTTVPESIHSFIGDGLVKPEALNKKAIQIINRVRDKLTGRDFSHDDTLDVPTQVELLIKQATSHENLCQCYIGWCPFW
PI3K β, sequence (P42338 whole entry): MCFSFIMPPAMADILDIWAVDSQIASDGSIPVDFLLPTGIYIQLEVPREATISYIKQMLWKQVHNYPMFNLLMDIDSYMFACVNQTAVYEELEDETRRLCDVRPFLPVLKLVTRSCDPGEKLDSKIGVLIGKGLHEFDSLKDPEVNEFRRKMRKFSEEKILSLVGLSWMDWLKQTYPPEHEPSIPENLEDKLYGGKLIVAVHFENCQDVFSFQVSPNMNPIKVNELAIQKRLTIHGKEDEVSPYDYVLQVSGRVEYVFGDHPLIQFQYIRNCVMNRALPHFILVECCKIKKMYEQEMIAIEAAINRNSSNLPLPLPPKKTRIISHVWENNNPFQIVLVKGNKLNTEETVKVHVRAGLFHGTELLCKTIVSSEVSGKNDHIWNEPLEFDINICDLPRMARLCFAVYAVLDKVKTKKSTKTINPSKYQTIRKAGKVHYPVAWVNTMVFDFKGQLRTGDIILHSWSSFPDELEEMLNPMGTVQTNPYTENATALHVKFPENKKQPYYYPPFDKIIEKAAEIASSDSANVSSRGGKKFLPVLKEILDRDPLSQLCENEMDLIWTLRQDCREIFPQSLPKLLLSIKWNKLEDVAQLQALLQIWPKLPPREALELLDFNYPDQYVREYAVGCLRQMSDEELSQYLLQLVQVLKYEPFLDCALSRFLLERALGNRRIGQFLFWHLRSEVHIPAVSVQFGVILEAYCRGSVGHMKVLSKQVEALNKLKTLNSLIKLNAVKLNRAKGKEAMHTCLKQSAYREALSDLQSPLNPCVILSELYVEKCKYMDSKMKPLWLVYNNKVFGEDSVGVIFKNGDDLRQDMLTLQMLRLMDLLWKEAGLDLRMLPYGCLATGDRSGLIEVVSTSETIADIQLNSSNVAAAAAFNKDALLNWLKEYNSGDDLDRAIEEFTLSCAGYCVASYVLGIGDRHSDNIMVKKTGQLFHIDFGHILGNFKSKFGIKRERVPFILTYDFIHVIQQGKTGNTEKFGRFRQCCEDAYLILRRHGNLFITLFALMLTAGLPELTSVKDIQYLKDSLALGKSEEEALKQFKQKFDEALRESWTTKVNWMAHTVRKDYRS
PI3K β, sequence (P27986 whole entry partner): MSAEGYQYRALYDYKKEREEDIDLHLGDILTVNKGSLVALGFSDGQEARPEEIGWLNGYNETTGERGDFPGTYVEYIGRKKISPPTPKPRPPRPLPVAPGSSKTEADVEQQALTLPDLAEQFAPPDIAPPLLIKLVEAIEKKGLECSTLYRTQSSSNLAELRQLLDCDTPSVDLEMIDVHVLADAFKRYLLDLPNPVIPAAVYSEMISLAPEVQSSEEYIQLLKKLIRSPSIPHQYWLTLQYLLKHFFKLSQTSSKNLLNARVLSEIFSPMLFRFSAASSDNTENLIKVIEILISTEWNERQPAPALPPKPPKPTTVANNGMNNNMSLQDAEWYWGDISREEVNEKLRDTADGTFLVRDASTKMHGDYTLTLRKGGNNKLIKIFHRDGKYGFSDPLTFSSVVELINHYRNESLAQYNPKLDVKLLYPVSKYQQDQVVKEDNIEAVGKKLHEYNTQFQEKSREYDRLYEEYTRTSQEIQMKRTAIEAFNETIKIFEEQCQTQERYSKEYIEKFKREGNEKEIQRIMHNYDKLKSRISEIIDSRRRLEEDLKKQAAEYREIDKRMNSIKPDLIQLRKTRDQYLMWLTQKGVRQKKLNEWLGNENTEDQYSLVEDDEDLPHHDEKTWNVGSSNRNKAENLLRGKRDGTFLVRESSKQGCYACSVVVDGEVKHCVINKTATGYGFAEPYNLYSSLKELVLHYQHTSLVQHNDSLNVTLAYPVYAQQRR
PI3K δ, sequence (O00329 whole entry): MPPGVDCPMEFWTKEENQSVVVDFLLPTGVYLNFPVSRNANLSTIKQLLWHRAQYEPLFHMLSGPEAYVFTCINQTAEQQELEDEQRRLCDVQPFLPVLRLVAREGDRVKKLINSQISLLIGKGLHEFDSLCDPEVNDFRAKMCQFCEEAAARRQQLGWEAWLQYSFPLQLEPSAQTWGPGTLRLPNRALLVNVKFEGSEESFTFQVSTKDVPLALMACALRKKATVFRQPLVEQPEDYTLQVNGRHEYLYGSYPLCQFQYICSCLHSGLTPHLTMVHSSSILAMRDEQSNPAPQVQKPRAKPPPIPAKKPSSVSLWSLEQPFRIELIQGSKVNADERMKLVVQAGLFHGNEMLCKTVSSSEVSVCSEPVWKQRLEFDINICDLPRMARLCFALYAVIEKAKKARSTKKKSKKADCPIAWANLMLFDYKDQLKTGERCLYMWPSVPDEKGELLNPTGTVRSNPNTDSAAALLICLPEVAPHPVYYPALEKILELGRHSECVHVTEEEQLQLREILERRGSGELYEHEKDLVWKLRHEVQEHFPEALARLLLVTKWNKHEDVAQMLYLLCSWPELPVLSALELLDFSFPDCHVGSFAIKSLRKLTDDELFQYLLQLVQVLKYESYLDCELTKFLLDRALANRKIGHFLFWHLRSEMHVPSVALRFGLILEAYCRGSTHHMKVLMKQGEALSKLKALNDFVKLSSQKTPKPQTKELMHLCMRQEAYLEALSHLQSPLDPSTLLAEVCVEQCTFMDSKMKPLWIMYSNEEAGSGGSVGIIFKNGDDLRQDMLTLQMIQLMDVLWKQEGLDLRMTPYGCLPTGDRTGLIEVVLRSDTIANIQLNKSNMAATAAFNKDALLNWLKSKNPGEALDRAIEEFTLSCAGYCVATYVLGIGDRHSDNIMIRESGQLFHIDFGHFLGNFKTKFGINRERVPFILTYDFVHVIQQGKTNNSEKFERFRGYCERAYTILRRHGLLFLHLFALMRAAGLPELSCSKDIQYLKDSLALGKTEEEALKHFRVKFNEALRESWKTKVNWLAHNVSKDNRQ
PI3K δ, sequence (P27986 whole entry partner): as the sequence (P27986 whole entry partner) above

COC1CN(C(=O)c2cnc3ccc(-c4ccc5oc(N)nc5c4)cn23)C1 [Compound 467]
IC50 (PC3): < 1000 nM

Nc1nc2cc(-c3ccc4ncc(C(=O)N5CC(N6CC[C@H](O)C6)C5)n4c3)ccc2o1 [Compound 469]
IC50 (PC3): < 10000 nM

Nc1nc2cc(-c3ccc4ncc(C(=O)N5CC(N6CC[C@@H](O)C6)C5)n4c3)ccc2o1 [Compound 470]
pIC50 (PI3K δ; in vitro): > 5.00
IC50 (PC3): < 10000 nM

Nc1nc2cc(-c3ccc4ncc(C(=O)N5CCC(F)(F)C5)n4c3)ccc2o1 [Compound 471]
IC50 (PC3): < 10000 nM

CN(C(=O)c1cnc2ccc(-c3ccc4oc(N)nc4c3)cn12)C1CCOCC1 [Compound 472]
IC50 (PC3): < 10000 nM

Nc1nc2cc(-c3ccc4ncc(C(=O)N5CC(F)(F)C5)n4c3)ccc2o1 [Compound 473]
IC50 (PC3): < 1000 nM

Nc1nc2cc(-c3ccc4ncc(C(=O)N5CC[C@H](n6cccn6)C5)n4c3)ccc2o1 [Compound 478]
IC50 (PC3): < 1000 nM

Nc1nc2cc(-c3ccc4ncc(C(=O)N5C6CCC5COC6)n4c3)ccc2o1 [Compound 480]
IC50 (PC3): < 1000 nM

C[C@H]1COCCN1C(=O)c1cnc2ccc(-c3ccc4oc(N)nc4c3)cn12 [Compound 483]
IC50 (PC3): < 10000 nM

C[C@@H]1CN(C2CN(C(=O)c3cnc4ccc(-c5ccc6oc(N)nc6c5)cn34)C2)CCN1C [Compound 508]
IC50 (PC3): < 1000 nM

C[C@H]1CN(C2CN(C(=O)c3cnc4ccc(-c5ccc6oc(N)nc6c5)cn34)C2)CCN1 [Compound 510]
IC50 (PC3): < 10000 nM

C[C@@H]1CN(C2CN(C(=O)c3cnc4ccc(-c5ccc6oc(N)nc6c5)cn34)C2)CCN1 [Compound 511]
pIC50 (PI3K γ; in vitro): > 5.00
IC50 (PC3): < 10000 nM

C[C@H]1CN(C2CN(C(=O)c3cnc4ccc(-c5ccc6oc(N)nc6c5)cn34)C2)CCN1C [Compound 512]
pIC50 (PI3K γ; in vitro): > 5.00
IC50 (PC3): < 1000 nM

CC1(C)CN(C2CN(C(=O)c3cnc4ccc(-c5ccc6oc(N)nc6c5)cn34)C2)CCN1 [Compound 515]
IC50 (PC3): < 1000 nM

COc1ncc(-c2ccc3ncn(C4CCN(C(C)C)CC4)c(=O)c3c2)cc1NS(=O)(=O)c1ccccc1 [Compound 522]
IC50 (PC3): < 1000 nM

CC(C)N1CCC(n2cnc3ccc(-c4cnc(Cl)c(NS(C)(=O)=O)c4)cc3c2=O)CC1 [Compound 523]
IC50 (PC3): < 10000 nM

COc1ncc(-c2ccc3ncn(C4CCN(C)CC4)c(=O)c3c2)cc1NS(=O)(=O)c1ccccc1 [Compound 524]
IC50 (PC3): < 1000 nM

CN1CCC(n2cnc3ccc(-c4cnc(Cl)c(NS(C)(=O)=O)c4)cc3c2=O)CC1 [Compound 526]
IC50 (PC3): < 10000 nM

Nc1nc2cc(-c3ccc4ncc(N5C6CCC5COC6)nc4n3)ccc2o1 [Compound 570]
pIC50 (PI3K δ): < 5.00
pIC50 (PI3K γ; Table 4): > 7.00
pIC50 (mTOR): < 5.00
pIC50 (PI3K α): > 7.00
pIC50 (PI3K β): < 5.00

CN1CC2CN(c3cnc4ccc(-c5ccc6oc(N)nc6c5)nc4n3)CC2C1 (centres unmarked) [Compound 629]
pIC50 (PI3K δ; Table 4): > 6.00
pIC50 (PI3K γ; Table 4): > 5.00
pIC50 (mTOR): < 5.00
pIC50 (PI3K α): > 7.00
pIC50 (PI3K β): > 6.00

CN1CC2CN(c3cnc4ccc(-c5ccc6oc(N)nc6c5)nc4c3)CC2C1 (centres unmarked) [Compound 630]
pIC50 (PI3K δ; Table 4): > 6.00
pIC50 (PI3K γ; Table 4): > 6.00
pIC50 (mTOR): < 5.00
pIC50 (PI3K α): > 7.00
pIC50 (PI3K β): > 6.00

CC(C)n1nc(-c2ccc3oc(N)nc3c2)c2c(N)ncnc21 [Compound B]
inhibition of Akt, S6, and 4EBP phosphorylation ([1]; PTEN mutant cells, western blot (FIG. 6B)): selective inhibition
downregulating Akt and S6 phosphorylation ([1]; combined treatment with Compound A and Compound B, western blot (FIG. 3)): synergistic effect
inhibition of Akt phosphorylation at serine 473 over threonine 308 ([1]; western blot (FIG. 7)): differential inhibition
mTORC1-dependent NRDG1 phosphorylation (NRDG1 phosphorylation): sensitivity
inhibition of kinase activity (downstream markers) and tumor growth [2]: effective at inhibiting kinase activity
inhibition of Akt phosphorylation, serine 473 versus threonine 308 [3]: differential inhibition of Akt phosphorylation at serine 473 over threonine 308
tumor weight in a preclinical breast cancer model (breast cancer model): synergistic effect
effects on mTORC1 and mTORC2 (pNDRG1) [4]: differential effects on mTORC1 and mTORC2
